System: 126254-015-R-J1-PDC complex spheroid growth, % test/control
Test: Anticancer human tumor 126254-015-R-J1-PDC patient-derived soft tissue sarcoma cell line growth inhibition [Asc]
Conditions: for IC50: curve of first compound; for viability, T/C: stronger effect = lower value
In short: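 Tumor cells were grown as complex spheroids with human endothelial cells (HUVEC) and human mesenchymal stem cells as stroma. Agents were tested alone and in combination, in half-log steps down from the clinical Cmax, or from 10 microM where Cmax was unknown.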

[1] = second compound 0.1 µM, first compound 0.0316 µM
[2] = second compound 0.1 µM, first compound 0.1 µM
[3] = second compound 0.1 µM, first compound 0.316 µM
[4] = second compound 0.1 µM, first compound 1 µM
[5] = second compound 0.1 µM, first compound 3.16 µM
[6] = second compound 0.1 µM, first compound 10 µM
[7] = second compound 0.316 µM, first compound 0.0316 µM
[8] = second compound 0.316 µM, first compound 0.1 µM
[9] = second compound 0.316 µM, first compound 0.316 µM
[10] = second compound 0.316 µM, first compound 1 µM
[11] = second compound 0.316 µM, first compound 3.16 µM
[12] = second compound 0.316 µM, first compound 10 µM
[13] = second compound 1 µM, first compound 0.0316 µM
[14] = second compound 1 µM, first compound 0.1 µM
[15] = second compound 1 µM, first compound 0.316 µM
[16] = second compound 1 µM, first compound 1 µM
[17] = second compound 1 µM, first compound 3.16 µM
[18] = second compound 1 µM, first compound 10 µM
[19] = second compound 3.16 µM, first compound 0.0316 µM
[20] = second compound 3.16 µM, first compound 0.1 µM
[21] = second compound 10 µM, first compound 0.0316 µM
[22] = second compound 10 µM, first compound 0.1 µM
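Note: spheroids exposed to compound for seven days.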
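Throughout, for viability, T/C: 100% = DMSO vehicle control wells.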

## C#Cc1c(F)ccc2cc(O)cc(-c3ncc4c(N5CC6CCC(C5)N6)nc(OCC56CCCN5CC(F)C6)nc4c3F)c12 (stereo not given) + CNC(C)C(=O)NC1CN(S(=O)(=O)c2cccc(S(=O)(=O)N3CCC4CCC(C(=O)NC(c5ccccc5)c5ccccc5)N4C(=O)C(NC(=O)C(C)NC)C3)c2)CCC2CCC(C(=O)NC(c3ccccc3)c3ccccc3)N2C1=O
Second compound 0.01 µM
  IC50: > 10000 nM
Second compound 0.0316 µM
  IC50: 7580 nM
Second compound 0.1 µM
  IC50: 3970 nM
Second compound 0.316 µM
  IC50: 8980 nM
Second compound 1 µM
  IC50: 895 nM
Second compound 0.01 µM, first compound 0.0316 µM
  viability, T/C: 77.7%
Second compound 0.01 µM, first compound 0.1 µM
  viability, T/C: 81.8%
Second compound 0.01 µM, first compound 0.316 µM
  viability, T/C: 78.5%
Second compound 0.01 µM, first compound 1 µM
  viability, T/C: 73%
Second compound 0.01 µM, first compound 3.16 µM
  viability, T/C: 81.7%
Second compound 0.01 µM, first compound 10 µM
  viability, T/C: 63.7%
Second compound 0.0316 µM, first compound 0.0316 µM
  viability, T/C: 69.6%
Second compound 0.0316 µM, first compound 0.1 µM
  viability, T/C: 69.4%
Second compound 0.0316 µM, first compound 0.316 µM
  viability, T/C: 71.5%
Second compound 0.0316 µM, first compound 1 µM
  viability, T/C: 64.8%
Second compound 0.0316 µM, first compound 3.16 µM
  viability, T/C: 61.6%
Second compound 0.0316 µM, first compound 10 µM
  viability, T/C: 46.4%
[1]
  viability, T/C: 68%
[2]
  viability, T/C: 62.4%
[3]
  viability, T/C: 65.9%
[4]
  viability, T/C: 54.1%
[5]
  viability, T/C: 55.6%
[6]
  viability, T/C: 40.5%
[7]
  viability, T/C: 58.4%
[8]
  viability, T/C: 58.7%
[9]
  viability, T/C: 55.6%
[10]
  viability, T/C: 58.4%
[11]
  viability, T/C: 50.6%
[12]
  viability, T/C: 48.1%
[13]
  viability, T/C: 55.8%
[14]
  viability, T/C: 49.5%
[15]
  viability, T/C: 56.1%
[16]
  viability, T/C: 47.8%
[17]
  viability, T/C: 46.7%
[18]
  viability, T/C: 40.9%

## Cc1nc(N2CCC3(CC2)COC(C)C3N)c(CO)nc1Sc1ccnc(N)c1Cl (stereo not given) + CNC(C)C(=O)NC1CN(S(=O)(=O)c2cccc(S(=O)(=O)N3CCC4CCC(C(=O)NC(c5ccccc5)c5ccccc5)N4C(=O)C(NC(=O)C(C)NC)C3)c2)CCC2CCC(C(=O)NC(c3ccccc3)c3ccccc3)N2C1=O
Second compound 0.01 µM
  IC50: 2520 nM
Second compound 0.0316 µM
  IC50: 893 nM
Second compound 0.1 µM
  IC50: 443 nM
Second compound 0.316 µM
  IC50: 264 nM
Second compound 1 µM
  IC50: 196 nM
Second compound 0.01 µM, first compound 0.00949 µM
  viability, T/C: 93.8%
Second compound 0.01 µM, first compound 0.03 µM
  viability, T/C: 91.4%
Second compound 0.01 µM, first compound 0.0949 µM
  viability, T/C: 76.8%
Second compound 0.01 µM, first compound 0.3 µM
  viability, T/C: 65.9%
Second compound 0.01 µM, first compound 0.949 µM
  viability, T/C: 63.4%
Second compound 0.01 µM, first compound 3 µM
  viability, T/C: 46.8%
Second compound 0.0316 µM, first compound 0.00949 µM
  viability, T/C: 76%
Second compound 0.0316 µM, first compound 0.03 µM
  viability, T/C: 73.8%
Second compound 0.0316 µM, first compound 0.0949 µM
  viability, T/C: 67.9%
Second compound 0.0316 µM, first compound 0.3 µM
  viability, T/C: 67.5%
Second compound 0.0316 µM, first compound 0.949 µM
  viability, T/C: 48.4%
Second compound 0.0316 µM, first compound 3 µM
  viability, T/C: 42.2%
Second compound 0.1 µM, first compound 0.00949 µM
  viability, T/C: 72.7%
Second compound 0.1 µM, first compound 0.03 µM
  viability, T/C: 63%
Second compound 0.1 µM, first compound 0.0949 µM
  viability, T/C: 57.6%
Second compound 0.1 µM, first compound 0.3 µM
  viability, T/C: 52.5%
Second compound 0.1 µM, first compound 0.949 µM
  viability, T/C: 49.4%
Second compound 0.1 µM, first compound 3 µM
  viability, T/C: 35.5%
Second compound 0.316 µM, first compound 0.00949 µM
  viability, T/C: 57.8%
Second compound 0.316 µM, first compound 0.03 µM
  viability, T/C: 55.4%
Second compound 0.316 µM, first compound 0.0949 µM
  viability, T/C: 56.3%
Second compound 0.316 µM, first compound 0.3 µM
  viability, T/C: 52.1%
Second compound 0.316 µM, first compound 0.949 µM
  viability, T/C: 38.6%
Second compound 0.316 µM, first compound 3 µM
  viability, T/C: 41.9%
Second compound 1 µM, first compound 0.00949 µM
  viability, T/C: 57.6%
Second compound 1 µM, first compound 0.03 µM
  viability, T/C: 59.6%
Second compound 1 µM, first compound 0.0949 µM
  viability, T/C: 59.6%
Second compound 1 µM, first compound 0.3 µM
  viability, T/C: 44.7%
Second compound 1 µM, first compound 0.949 µM
  viability, T/C: 30%
Second compound 1 µM, first compound 3 µM
  viability, T/C: 33.5%

## Cn1ncnc1[C@H]1c2n[nH]c(=O)c3cc(F)cc(c23)N[C@@H]1c1ccc(F)cc1 + Cc1c(S(C)(=O)=O)c(-c2cc(F)cc(N3CCN(c4ccc(NS(=O)(=O)c5ccc(NC(CCN6CCC(C(=O)OCCCP(=O)(O)O)CC6)CSc6ccccc6)c(S(=O)(=O)C(F)(F)F)c5)cc4)CC3)c2)c(-c2ccc(Cl)cc2)n1C(C)C
Second compound 0.1 µM
  IC50: > 100 nM
Second compound 0.316 µM
  IC50: > 100 nM
Second compound 1 µM
  IC50: > 100 nM
Second compound 3.16 µM
  IC50: > 100 nM
Second compound 10 µM
  IC50: 99.3 nM
Second compound 0.1 µM, first compound 0.000316 µM
  viability, T/C: 90.6%
Second compound 0.1 µM, first compound 0.001 µM
  viability, T/C: 89.9%
Second compound 0.1 µM, first compound 0.00316 µM
  viability, T/C: 82.1%
Second compound 0.1 µM, first compound 0.01 µM
  viability, T/C: 73.9%
[1]
  viability, T/C: 76.9%
[2]
  viability, T/C: 65.2%
Second compound 0.316 µM, first compound 0.000316 µM
  viability, T/C: 87.7%
Second compound 0.316 µM, first compound 0.001 µM
  viability, T/C: 79%
Second compound 0.316 µM, first compound 0.00316 µM
  viability, T/C: 71.6%
Second compound 0.316 µM, first compound 0.01 µM
  viability, T/C: 69.2%
[7]
  viability, T/C: 69.7%
[8]
  viability, T/C: 58.5%
Second compound 1 µM, first compound 0.000316 µM
  viability, T/C: 79%
Second compound 1 µM, first compound 0.001 µM
  viability, T/C: 85.1%
Second compound 1 µM, first compound 0.00316 µM
  viability, T/C: 78.4%
Second compound 1 µM, first compound 0.01 µM
  viability, T/C: 63.9%
[13]
  viability, T/C: 64%
[14]
  viability, T/C: 61.6%
Second compound 3.16 µM, first compound 0.000316 µM
  viability, T/C: 83.4%
Second compound 3.16 µM, first compound 0.001 µM
  viability, T/C: 68%
Second compound 3.16 µM, first compound 0.00316 µM
  viability, T/C: 70.3%
Second compound 3.16 µM, first compound 0.01 µM
  viability, T/C: 61%
[19]
  viability, T/C: 57.5%
[20]
  viability, T/C: 55%
Second compound 10 µM, first compound 0.000316 µM
  viability, T/C: 82%
Second compound 10 µM, first compound 0.001 µM
  viability, T/C: 72%
Second compound 10 µM, first compound 0.00316 µM
  viability, T/C: 77.7%
Second compound 10 µM, first compound 0.01 µM
  viability, T/C: 68.7%
[21]
  viability, T/C: 55.2%
[22]
  viability, T/C: 50%

## O=C(c1cc(Cc2n[nH]c(=O)c3ccccc23)ccc1F)N1CCN(C(=O)C2CC2)CC1 + Cc1c(S(C)(=O)=O)c(-c2cc(F)cc(N3CCN(c4ccc(NS(=O)(=O)c5ccc(NC(CCN6CCC(C(=O)OCCCP(=O)(O)O)CC6)CSc6ccccc6)c(S(=O)(=O)C(F)(F)F)c5)cc4)CC3)c2)c(-c2ccc(Cl)cc2)n1C(C)C
Second compound 0.1 µM
  IC50: > 10000 nM
Second compound 0.316 µM
  IC50: 9750 nM
Second compound 1 µM
  IC50: 7040 nM
Second compound 3.16 µM
  IC50: 5750 nM
Second compound 10 µM
  IC50: > 10000 nM
[1]
  viability, T/C: 77.8%
[2]
  viability, T/C: 81.8%
[3]
  viability, T/C: 80%
[4]
  viability, T/C: 71.8%
[5]
  viability, T/C: 66.8%
[6]
  viability, T/C: 56.2%
[7]
  viability, T/C: 87.3%
[8]
  viability, T/C: 79.3%
[9]
  viability, T/C: 80.2%
[10]
  viability, T/C: 67.6%
[11]
  viability, T/C: 73.9%
[12]
  viability, T/C: 47.8%
[13]
  viability, T/C: 77%
[14]
  viability, T/C: 72.8%
[15]
  viability, T/C: 65.7%
[16]
  viability, T/C: 71.3%
[17]
  viability, T/C: 58.1%
[18]
  viability, T/C: 45.8%
[19]
  viability, T/C: 75%
[20]
  viability, T/C: 68.7%
Second compound 3.16 µM, first compound 0.316 µM
  viability, T/C: 74.5%
Second compound 3.16 µM, first compound 1 µM
  viability, T/C: 65.5%
Second compound 3.16 µM, first compound 3.16 µM
  viability, T/C: 59.2%
Second compound 3.16 µM, first compound 10 µM
  viability, T/C: 41.8%
[21]
  viability, T/C: 75.9%
[22]
  viability, T/C: 80.5%
Second compound 10 µM, first compound 0.316 µM
  viability, T/C: 72.1%
Second compound 10 µM, first compound 1 µM
  viability, T/C: 70.6%
Second compound 10 µM, first compound 3.16 µM
  viability, T/C: 60.6%
Second compound 10 µM, first compound 10 µM
  viability, T/C: 55.3%

— PubChem BioAssay AID1963429 (Molecular Pharmacology Branch, DTP, NCI, 2024)
